Among the data in patent US20040077625A1, “Novel 1,4-benzothiazepine and 1,5-benzothiazepine compounds as inhibitors of apical sodium codependent bile acid transport abd taurocholate uptake” (priority 2001, published 2004) are IC50 values, retold here.

For this assay, the target named is T1, human IBAT (Homo sapiens, UniProt Q12908).
T1 construct: expressed in transfected cells; host or cells: Baby hamster kidney (BHK) cells, H14 cells
T1 sequence (Q12908 1-348): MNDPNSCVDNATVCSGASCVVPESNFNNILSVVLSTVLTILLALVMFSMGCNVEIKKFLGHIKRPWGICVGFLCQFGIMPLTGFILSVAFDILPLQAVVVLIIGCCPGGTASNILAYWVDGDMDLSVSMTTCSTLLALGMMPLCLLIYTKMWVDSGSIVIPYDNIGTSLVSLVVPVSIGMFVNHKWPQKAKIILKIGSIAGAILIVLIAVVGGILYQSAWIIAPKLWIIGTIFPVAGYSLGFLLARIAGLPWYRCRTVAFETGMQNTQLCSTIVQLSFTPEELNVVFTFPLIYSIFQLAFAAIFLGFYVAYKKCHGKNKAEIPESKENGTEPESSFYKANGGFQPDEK
The assay is described as follows: In vitro assay of compounds that inhibit IBAT-mediated uptake of [14C]-taurocholate (TC) in H14 cells. The class given is cell-based. The note with it: Table 8, 1, 4 and 1, 5 benzothiazipines. As to the method:
In Vitro Assay of Compounds that Inhibit IBAT-Mediated Uptake of [^14C]-Taurocholate (TC) in H14Cells
Baby hamster kidney cells (BHK) transfected with the cDNA of human IBAT (H14 cells) are seeded in 96 well Top-Count tissue culture plates at 60,000 cells/well for assays run within 24 hours of seeding, 30,000 cells/well for assays run within 48 hours, and 10,000 cells/well for assays run within 72 hours.
On the day of assay, the cell monolayer is gently washed once with […] (Dulbecco's Modified Eagle's medium with 4.5 g/L glucose plus 0.2% (w/v) fatty acid free bovine serum albumin ((FAF)BSA). To each well […] of a two-fold concentrate of test compound in assay buffer is added along with […] of […] [^14C]-taurocholate in assay buffer (final concentration of […] [^14C]-taurocholate). The cell culture plates are incubated 2 hours at 37° C. prior to gently washing each well twice with […] 4° C. Dulbecco's phosphate-buffered saline (PBS) containing 0.2% (w/v) (FAF)BSA. The wells are then gently washed once with […] 4° C. PBS without (FAF)BSA. To each […] of liquid, scintillation counting fluid is added. The plates are heat sealed and shaken for 30 minutes at room temperature prior to measuring the amount of radioactivity in each well on a Packard Top-Count instrument.

The IC50 is the point on the concentration scale where inhibition reaches its midpoint. `CCCCC1(CCCC)CS(=O)(=O)c2ccc(N(C)C)cc2[C@@H](c2ccc(OC)cc2)N1` (racemic) [Compound 2, 3.3-Dibutyl-2.3,4,5-tetrahydro-7-dimethylamino-5-(4′-methoxyphenyl)-1,4-benzothiazepine 1,1-dioxide] registered an IC50 of 497 nM. This lies in the sub-micromolar range.
